Where two headings read alike, the source gives them in different places.
How the values were obtained:
[1] = system: R/M HNSCC; conditions: cited from earlier work
[2] = system: head and neck cancer cell line; conditions: Parkinson et al 2007; cited from earlier work
[3] = system: recurrent squamous cell carcinoma of the head and neck; experiment: Phase I clinical study: tumour evaluation per RECIST 1.1; assay type: in vivo, human
Protocol: A Phase I clinical study was conducted to evaluate the safety, pharmacokinetics and anti-tumour activity of NRC-2694-A (NRC-2694 dihydrochloride) in patients with recurrent squamous cell carcinoma of the head and neck.
An open label, prospective, non-randomized, multicentre, dose escalation study was performed. The starting dose selected for this study was 100 mg/day and the maximum dose received was 500 mg/day. Eligible subjects were housed in a unit of the hospital for 12 days, beyond which patients who tolerated the drug were treated on out-patient (ambulatory) basis.
Tumour Evaluation: Change in the size of evaluable tumour from base line was evaluated as per RECIST criteria (version 1.1).

[4] = Phase I clinical study: safety, MTD and DLT; assay type: in vivo
Protocol: An open label, prospective, non-randomized, multicentre, dose escalation study was performed. The starting dose selected for this study was 100 mg/day and the maximum dose received was 500 mg/day.
Safety: Assessments were performed within 7 days before administration of study medication and subsequently on Days 12, 18, 24, 30, 45, 60, 75 and 90. However, for assessing the DLT and MTD first 30 day safety data was considered.

[5] = Phase I clinical study: plasma pharmacokinetics (LC-MS/MS); assay type: in vivo, human; conditions: 100 mg/day to 500 mg/day
Protocol: Secondary: To evaluate the single and multiple dose pharmacokinetics and anti-tumour activity of NRC-2694-A. An open label, prospective, non-randomized, multicentre, dose escalation study was performed. The starting dose selected for this study was 100 mg/day and the maximum dose received was 500 mg/day. Eligible subjects were housed in a unit of the hospital for 12 days, beyond which patients who tolerated the drug were treated on out-patient (ambulatory) basis. Pharmacokinetic Evaluation: Estimation of NRC-2694 in plasma was done using a validated LC-MS/MS method. Based on the plasma concentration data, non-compartmental pharmacokinetic variables viz. area under the curve (AUC), peak plasma concentration (Cmax), time to peak plasma concentration (Tmax), and elimination rate constant, volume of distribution, half-life and clearance were calculated for single dose (on Day 1) as well as at steady state (on Day 12). Blood samples at pre-dose, 0.5, 1, 1.5, 2, 2.5, 3, 4, 6, 8, 12 and 24 hrs were collected in K2 EDTA prefilled vacutainers.

[6] = system: recurrent and/or metastatic squamous cell carcinoma of the head and neck (R/M HNSCC); experiment: Phase II randomized study: efficacy (PFS, ORR, RECIST 1.1); assay type: in vivo, human
Text: Primary objective: The primary objective was to evaluate the efficacy of NRC-2694-A in combination with platinum plus paclitaxel regimen compared to platinum plus paclitaxel regimen alone in terms of progression free survival (PFS) in patients with recurrent and/or metastatic squamous cell carcinoma of the head and neck (R/M HNSCC).
Secondary objectives: The secondary objective was (a) to compare the objective response rate in patients with R/M HNSCC treated with NRC-2694-A in combination with platinum plus paclitaxel regimen compared to platinum plus paclitaxel regimen alone and (b) to compare the safety and tolerability of the two regimens.
The study was an open-label, prospective, randomized, active controlled, multicentric phase-II study of NRC-2694-A in patients with histologically/cytologically confirmed HNSCC with radiological progression (recurrence and/or metastasis).
Patients between 18 and 65 years of age with life expectancy≥3 months having recurrent and/or metastatic disease for whom cisplatin/carboplatin plus paclitaxel regimen was planned were eligible for the study. Those who fit all the inclusion and exclusion criteria were randomized to receive either chemotherapy+NRC-2694-A (study drug arm) or chemotherapy alone (control arm). • Arm-I (study drug arm): NRC-2694-A+cisplatin/carboplatin and paclitaxel • Arm-II (control arm): cisplatin/carboplatin and paclitaxel
During the study, 300 mg NRC-2694-A was administered once daily in the morning with or without food with 240 ml of water. The dose of cisplatin was 100 mg/m^2 of body surface area as intravenous infusion over an hour. Alternatively, the dose of carboplatin was based on the target area under the curve (AUC) equivalent to 5 mg/mL/min, as an infusion over 1 hour. The choice of platinum compound was per the investigator's discretion and was dependent on the type of platinum received during prior therapy, avoiding repetition. Paclitaxel was given at a dose of 175 mg/m^2 of body surface area as an infusion over 3 hours. • Monotherapy: After completion of 6 cycles of chemotherapy in control arm or in study drug arm, patients received 300 mg of NRC-2694-A once daily as a monotherapy.

[7] = Stage-II monotherapy, among the 4 patients with partial response in Stage-I

Pembrolizumab: approved monoclonal antibody, immunotherapy for R/M HNSCC
ORR ([1]; Pembrolizumab alone, CPS>20 population): 26%
ORR ([1]; combination of Pembrolizumab and platinum-based chemotherapy): 36%

C#Cc1cccc(Nc2ncnc3cc(OC)c(OCCCN4CCOCC4)cc23)c1 [NRC-2694, (3-Ethynyl-phenyl)-[7-methoxy-6-(3-morpholin-4-yl-propoxy)-quinazolin-4-yl]-amine]
inhibition of growth of a head and neck cancer cell line grafted into athymic female mice [2]: low to moderate inhibition

C#Cc1cccc(Nc2ncnc3cc(OC)c(OCCCN4CCOCC4)cc23)c1.Cl.Cl [NRC-2694-A, N-(3-ethynylphenyl)-7-methoxy-6-(3-morpholinopropoxy) quinazolin-4-amine dihydrochloride]
Outcome (tumour evaluation) ([3]; Subject No. 0202, Head and Neck, 120 days completed): Stable Disease
Outcome (tumour evaluation) ([3]; Subject No. 0207, Head and Neck, 79 days completed): Stable Disease
Outcome (tumour evaluation) ([3]; Subject No. 0211, Head and Neck, 120 days completed): Stable Disease
Outcome (tumour evaluation) ([3]; Subject No. 0212, Head and Neck, 120 days completed): Partial Response
Outcome (tumour evaluation) ([3]; Subject No. 0216, Head and Neck, 120 days completed): Stable Disease
anti-tumour activity (effect on tumour size) ([3]; patients with recurrent squamous cell carcinoma of the head and neck, oral once daily): tumour size reduction or tumour size stasis
safety profile ([4]; once daily administration, Phase I): tolerable safety profile
MTD (maximum tolerated dose) ([4]; oral once daily, dose escalation 100 to 500 mg/day, first 30 day safety data): 400 mg/day
plasma concentration versus dose ([5]; Day-1 and Day-12 concentrations): dose dependent increase
relationship of pharmacokinetics to dose ([5]; patients): Dose proportional relationship
patients in whom complete response was maintained ([6]; Stage-II monotherapy 300 mg once daily, Arm-I patients with complete response in Stage-I): 2 patients
patients continuing to have partial response [6, 7]: one
patients with progressive disease [6, 7]: 1 patients
patients with stable disease [6, 7]: 2 patients
patients continuing to have progressive disease ([6]; Stage-II monotherapy, patient with progressive disease in Stage-I): 1 patients
patients achieving complete response ([6]; Stage-II monotherapy, patients from Arm-II with partial response and stable disease earlier): 2 patients
patients continuing to have stable disease ([6]; Stage-II monotherapy, patients with stable disease in Stage-I): Two

— US20240285642A1, “EGFR INHIBITOR FOR THE TREATMENT OF HEAD AND NECK CANCER” (NATCO PHARMA LIMITED, priority 2021, published 2024)
